Data published in the NIST ThermoML archive (doi:10.1016/j.fluid.2011.03.012).
± gives the expanded uncertainty stated by the source.

What was measured:
[1] = Molar enthalpy of transition or fusion; settings: Crystal; DSC
[2] = Crystal; DTA

With `Cc1cnc(NC(=O)C2=C(O)c3ccccc3S(=O)(=O)N2C)s1` [meloxicam] the “Molar enthalpy of transition or fusion” value [1] was 10.5 ± 0.287 kcal/mol and the Normal melting temperature [2] was 263.6 ± 1.4 °C.
